Values quoted from earlier work, collected in patent US20060009656A1, “METHOD OF PRODUCING BETAINE COMPOUND” (priority 2004, published 2006).
Where a name gives a salt, the structure may show the parent alone.

Settings: as methyl supplier in feed

## C[N+](C)(C)CC(=O)O [Betaine anhydrous, 2-(Trimethylammonio) ethanoic acid, hydroxide, inner salt]
Relative to 50% choline chloride
  effective value of organism relative to 50% choline chloride: 1.8 times
Relative to DL-methionine
  effective value of organism relative to DL-methionine: 3 times
